Laboratory results as given in patent US11951149B2, “Intranasal vasopressin treatment of social deficits in autism” (The Board of Trustees of the Leland Stanford Junior …, priority 2018, dated 2024).

Key:
children with ASD [1] = assay: Height and weight, change from baseline, 4-week trial; format: in vivo, human; settings: after 4-week treatment
Method: Commercially available injectable sterile AVP was used in this study. It was initially purchased from JHP Pharmaceuticals (Rochester, MI), which was subsequently acquired by Par Sterile Products (Chestnut Ridge, NY) in 2014. The placebo solution was prepared by Koshland Pharm (San Francisco, CA) and consisted of ingredients used in the active solution except the AVP compound. A pharmacist transferred 25 mL of AVP (20 International Units (IU)/mL) or placebo solutions into sterile amber glass bottles with metered (0.1 mL/per puff) nasal spray applicators to ensure that the AVP and placebo applicators were visually indistinguishable to the research team. […]
Parents were trained in the clinic by research staff to administer the nasal spray to their child. […] Vital signs were monitored before, and 20 minutes after, initial single-dose nasal spray administration to monitor for acute, unanticipated reactions to AVP. […]
Throughout the trial, safety and tolerability were assessed weekly using the following measurements: vital signs, 12-lead electrocardiogram, clinical chemistry labs, and height and weight. Side effects were evaluated with the DOTES (51), and modified to assess potential side effects that might be related to AVP such as hyponatremia/water intoxication. […]

children with ASD [2] = assay: Adverse events assessed by the DOTES and OAS, 4-week trial; format: in vivo, human
Method: (§1) Commercially available injectable sterile AVP was used in this study. It was initially purchased from JHP Pharmaceuticals (Rochester, MI), which was subsequently acquired by Par Sterile Products (Chestnut Ridge, NY) in 2014. The placebo solution was prepared by Koshland Pharm (San Francisco, CA) and consisted of ingredients used in the active solution except the AVP compound. A pharmacist transferred 25 mL of AVP (20 International Units (IU)/mL) or placebo solutions into sterile amber glass bottles with metered (0.1 mL/per puff) nasal spray applicators to ensure that the AVP and placebo applicators were visually indistinguishable to the research team. These applicators were coded and given to the Stanford Health Care's Investigational Drug Service (IDS) for refrigerated storage (2-8° C.) and subsequent dispensing. Following the first AVP dose (see below), the dose escalation regimen for all participants involved administration of 4 IU twice daily (or BID) of AVP during week 1 and 8 IU BID of AVP during week 2. Participants aged 6 to 9.5 years then received 12 IU BID of AVP during weeks 3 and 4, while participants aged 9.6 to 12.92 years received 16 IU BID of AVP during weeks 3 and 4.
(§2) Parents were trained in the clinic by research staff to administer the nasal spray to their child. The first dose was administered in the ADDC under the direct supervision of the research team (with the first dose being 12 IU for participants aged 6 to 9.5 years and 16 IU for participants aged 9.6 to 12.92 years). Vital signs were monitored before, and 20 minutes after, initial single-dose nasal spray administration to monitor for acute, unanticipated reactions to AVP. Participants' parents then received two 25 mL nasal spray bottles containing either AVP or placebo for 4 weeks of at-home dispensing (as described above), for which they were responsible for their child's continued twice daily dosing. Parents were instructed to keep the bottles refrigerated with only brief room temperature excursions (i.e., for dosing). Participants underwent weekly safety/tolerability assessments in the clinic to monitor for adverse events. On completion of the 4-week treatment period, behavioral data, safety/tolerability data, and blood samples were again collected. After completion of the trial, participants randomized to the placebo group were invited to participate in an optional open-label 4-week AVP treatment phase to ensure that all children had the opportunity to receive AVP treatment.
(§3) Throughout the trial, safety and tolerability were assessed weekly using the following measurements: vital signs, 12-lead electrocardiogram, clinical chemistry labs, and height and weight. Side effects were evaluated with the DOTES (51), and modified to assess potential side effects that might be related to AVP such as hyponatremia/water intoxication. Finally, based on animal studies showing that AVP can induce aggressive behavior under some circumstances (39, 40), the OAS was used to monitor for observable aggressive or violent behavior in this trial (52).
One-way LS-GLMs were used to test the change from baseline between the AVP and placebo treatment groups following 4-week treatment for adverse events and safety measures. Fisher's exact Test was used to test for differences between treatment conditions for participant characteristics and concomitant medications. Suitable transformations were applied as needed.

children with ASD [3] = assay: Clinical chemistry, change from baseline, 4-week trial; format: in vivo, human; settings: after 4-week treatment
Method: as §1, §2, §3
Whole blood was drawn from the child's antecubital region by a pediatric phlebotomist using standard protocols at Lucile Packard Children's Hospital outpatient laboratory. A portion of the sample was collected per standard laboratory protocols and sent for clinical chemistry analysis. To evaluate AVP concentrations, whole blood was also collected into chilled EDTA-treated vacutainer tubes and immediately placed on wet ice. Samples were promptly centrifuged (1600×g at 4° C. for 15 min), the plasma fraction aliquoted into polypropylene tubes, and flash-frozen on dry ice. Whole blood was also collected into PAXgene RNA tubes (Qiagen, CA) and processed per manufacturer instruction to evaluate neuropeptide receptor gene expression [i.e., oxytocin receptor (OXTR) and AVPR1A]. All samples were stored at −80° C. until quantification. […]

children with ASD [4] = assay: 12-lead electrocardiogram, change from baseline, 4-week trial; format: in vivo, human; settings: after 4-week treatment
Method: as §1, §2, §3
(§4) Treatment effect generalizability was evaluated using: 1) the RBS-R which measures a comprehensive list of repetitive and stereotyped behaviors (61); and 2) The Spence Children's Anxiety Scale which assesses the severity of trait anxiety symptoms broadly in line with DSM dimensions of anxiety disorder (62). Anxiety was selected as an outcome measure due to its significant comorbidity with ASD (63). Finally, safety and tolerability were evaluated using: 1) the DOTES (51); and 2) change from baseline in electrocardiogram, clinical chemistry labs, vital signs (i.e., blood pressure, heart rate, temperature), as well as height and weight.
(§5) One-way LS-GLMs were used to test the change from baseline between the AVP and placebo treatment groups following 4-week treatment for adverse events and safety measures. […]

[5] = intranasal administration; cited from earlier work
children with ASD [6] = assay: Vital signs, change from baseline, 4-week trial; format: in vivo, human; settings: after 4-week treatment
Method: as §1, §2, §3, §4, §5

[7] = tested on: high-functioning adults with ASD; settings: single dose intravenous, cited from earlier work
ASD in children = assay: Intranasal administration of desmopressin in children with ASD; format: in vivo, human
[8] = Dermatological, 4-week treatment, N = 17
[9] = Gastrointestinal, 4-week treatment, N = 17
[10] = General, 4-week treatment, N = 17
[11] = HEENT, 4-week treatment, N = 17
[12] = Neurological/Psychiatric, 4-week treatment, N = 17
[13] = Renal, 4-week treatment, N = 17
[14] = post hoc sub-test, not corrected for multiple comparisons

Compound: NC(=O)CC[C@@H]1NC(=O)[C@H](Cc2ccccc2)NC(=O)[C@H](Cc2ccc(O)cc2)NC(=O)[C@@H](N)CSSC[C@@H](C(=O)N2CCC[C@H]2C(=O)N[C@@H](CCCN=C(N)N)C(=O)NCC(N)=O)NC(=O)[C@H](CC(N)=O)NC1=O [AVP, arginine vasopressin]
- Change from baseline LSM +/− SE: Height (children with ASD [1]): 0.8 ± 0.23 centimeters
- Changes from baseline in physiological measures (children with ASD [1]): No significant changes from baseline
- Tolerability (children with ASD [2]; 4-week intranasal treatment): well tolerated with minimal adverse effects
- Adverse event rates compared to placebo-treated group (DOTES, OAS) (children with ASD [2]; 4-week treatment, parent ratings): no significant differences
- Adverse event: Bug bite (children with ASD [2]; [8]): 1 (6%) counts and percentages
- Adverse event: Skin burn (children with ASD [2]; [8]): 0 (0%) counts and percentages
- Adverse event: Skin rash (children with ASD [2]; [8]): 1 (6%) counts and percentages
- Adverse event: Constipation (children with ASD [2]; [9]): 1 (6%) counts and percentages
- Adverse event: Decreased appetite (children with ASD [2]; [9]): 4 (24%) counts and percentages
- Adverse event: Diarrhea (children with ASD [2]; [9]): 0 (0%) counts and percentages
- Adverse event: Nausea/vomiting (children with ASD [2]; [9]): 2 (12%) counts and percentages
- Adverse event: Body ache (children with ASD [2]; [10]): 1 (6%) counts and percentages
- Adverse event: Cough (children with ASD [2]; [10]): 1 (6%) counts and percentages
- Adverse event: Fever (children with ASD [2]; [10]): 2 (12%) counts and percentages
- Adverse event: Blurred vision (children with ASD [2]; [11]): 1 (6%) counts and percentages
- Adverse event: Cold sore (children with ASD [2]; [11]): 0 (0%) counts and percentages
- Adverse event: Dry mouth (children with ASD [2]; [11]): 1 (6%) counts and percentages
- Adverse event: Ear infection (children with ASD [2]; [11]): 0 (0%) counts and percentages
- Adverse event: Nasal congestion (children with ASD [2]; [11]): 3 (18%) counts and percentages
- Adverse event: Runny nose (children with ASD [2]; [11]): 0 (0%) counts and percentages
- Adverse event: Sore throat (children with ASD [2]; [11]): 0 (0%) counts and percentages
- Adverse event: Aggression (children with ASD [2]; [12]): 1 (6%) counts and percentages
- Adverse event: Akathisia (children with ASD [2]; [12]): 1 (6%) counts and percentages
- Adverse event: Decreased motor activity (children with ASD [2]; [12]): 1 (6%) counts and percentages
- Adverse event: Depressive affect (children with ASD [2]; [12]): 2 (12%) counts and percentages
- Adverse event: Dizziness (children with ASD [2]; [12]): 0 (0%) counts and percentages
- Adverse event: Drowsiness (children with ASD [2]; [12]): 1 (6%) counts and percentages
- Adverse event: Excitement/agitation (children with ASD [2]; [12]): 4 (24%) counts and percentages
- Adverse event: Head banging (children with ASD [2]; [12]): 1 (7%) counts and percentages
- Adverse event: Headache (children with ASD [2]; [12]): 2 (12%) counts and percentages
- Adverse event: Increased motor activity (children with ASD [2]; [12]): 4 (24%) counts and percentages
- Adverse event: Insomnia (children with ASD [2]; [12]): 4 (24%) counts and percentages
- Adverse event: Lethargy/tiredness (children with ASD [2]; [12]): 0 (0%) counts and percentages
- Adverse event: Bed wetting (children with ASD [2]; [13]): 1 (6%) counts and percentages
- Adverse event: Increased urination (children with ASD [2]; [13]): 1 (6%) counts and percentages
- Change from baseline LSM +/− SE: Anion Gap (children with ASD [3]): -0.65 ± 0.78 mmol/L
- Change from baseline LSM +/− SE: CO2 (children with ASD [3]): -0.12 ± 0.57 mmol/L
- Change from baseline LSM +/− SE: Calcium (children with ASD [3]): 0.047 ± 0.07 mg/dL
- Change from baseline LSM +/− SE: Chloride (children with ASD [3]): 1.0 ± 0.56 mmol/L
- Change from baseline LSM +/− SE: Creatine (children with ASD [3]): -0.017 ± 0.03 mg/dL
- Change from baseline LSM +/− SE: Glucose (children with ASD [3]): 2.2 ± 4.41 mg/dL
- Change from baseline LSM +/− SE: Osmolality (Serum) (children with ASD [3]): 0.18 ± 1.01 mOsm/kg
- Change from baseline LSM +/− SE: Osmolality (Urine) (children with ASD [3]): 8.5 ± 82.6 mOsm/kg
- Change from baseline LSM +/− SE: Potassium (children with ASD [3]): 0.15 ± 0.11 mmol/L
- Change from baseline LSM +/− SE: Sodium (children with ASD [3]): 0.24 ± 0.63 mmol/L
- Change from baseline LSM +/− SE: Urea Nitrogen (children with ASD [3]): -1.3 ± 0.78 mg/dL
- Changes from baseline in clinical chemistry (children with ASD [3]): No significant changes from baseline
- Changes from baseline in 12-lead electrocardiogram (children with ASD [4]): No significant changes from baseline
- Change from baseline LSM +/− SE: Bazett’s Corrected QT Interval (children with ASD [4]; electrocardiogram): -1.9 ± 5.07 ms
- Change from baseline LSM +/− SE: Heart Rate (children with ASD [4]; electrocardiogram): −2.5 ± 3.75 bpm
- Change from baseline LSM +/− SE: P Duration (children with ASD [4]; electrocardiogram): -2.6 ± 5.76 ms
- Change from baseline LSM +/− SE: PR Intervals (children with ASD [4]; electrocardiogram): -4.6 ± 6.40 ms
- Change from baseline LSM +/− SE: QRS Interval (children with ASD [4]; electrocardiogram): 0.4 ± 1.55 ms
- Change from baseline LSM +/− SE: QT Interval (children with ASD [4]; electrocardiogram): 3.5 ± 5.53 ms
- Cerebrospinal fluid (CSF) concentrations of measured AVP [5]: elevated
- Change from baseline LSM +/− SE: BP Change Diastolic (Standin-Sitting) (children with ASD [6]): −3.1 ± 2.65
- Change from baseline LSM +/− SE: BP Change Systolic (Standing-Sitting) (children with ASD [6]): −3.6 ± 2.76
- Change from baseline LSM +/− SE: BP, Diastolic, Sitting (children with ASD [6]): 3.2 ± 2.09 mmHg
- Change from baseline LSM +/− SE: BP, Diastolic, Standing (children with ASD [6]): 0.1 ± 2.31 mmHg
- Change from baseline LSM +/− SE: BP, Systolic, Sitting (children with ASD [6]): 5.5 ± 2.53 mmHg
- Change from baseline LSM +/− SE: BP, Systolic, Standing (children with ASD [6]): 1.9 ± 2.38 mmHg
- Change from baseline LSM +/− SE: Pulse change (children with ASD [6]): 2.1 ± 2.75 beats per minute
- Change from baseline LSM +/− SE: Pulse sitting (children with ASD [6]): 1.9 ± 3.87 beats per minute
- Change from baseline LSM +/− SE: Pulse standing (children with ASD [6]): 4.0 ± 3.57 beats per minute
- Change from baseline LSM +/− SE: Temperature (children with ASD [6]): 0.2 ± 0.17 ° F.
- Changes from baseline in vital signs (children with ASD [6]): No significant changes from baseline

Compound: CN(C)CCn1cc(C(=O)N2CCC3(CC2)OCc2ccccc23)c2ccc(Cl)cc21 [RG7713]
- Improvements on overall composite tests [7]: non-significant
- Ability to detect lust on an affective speech recognition task [7, 14]: reduced
- Biological motion orienting preference [7, 14]: increased

Compound: NC(=O)CC[C@@H]1NC(=O)[C@H](Cc2ccccc2)NC(=O)[C@H](Cc2ccc(O)cc2)NC(=O)CCSSC[C@@H](C(=O)N2CCC[C@H]2C(=O)N[C@H](CCCN=C(N)N)C(=O)NCC(N)=O)NC(=O)[C@H](CC(N)=O)NC1=O [desmopressin, 1-deamino-8-D-arginine-vasopressin]
- Treatment of ASD in children (ASD in children): not found to effectively treat ASD
